Data reported in US20250230165A1, “HETEROCYCLIC COMPOUNDS FOR USE IN THE TREATMENT OF CANCER” (ARTIOS PHARMA LIMITED, priority 2021, published 2025).

Target: T1, Human Polθ polymerase domain (aa1820-2590) (Homo sapiens, UniProt O75417)
T1 construct: Human Polθ polymerase domain (aa1820-2590) was expressed in E. coli; made in house; host or cells: E. coli
T1 sequence (O75417 1820-2590): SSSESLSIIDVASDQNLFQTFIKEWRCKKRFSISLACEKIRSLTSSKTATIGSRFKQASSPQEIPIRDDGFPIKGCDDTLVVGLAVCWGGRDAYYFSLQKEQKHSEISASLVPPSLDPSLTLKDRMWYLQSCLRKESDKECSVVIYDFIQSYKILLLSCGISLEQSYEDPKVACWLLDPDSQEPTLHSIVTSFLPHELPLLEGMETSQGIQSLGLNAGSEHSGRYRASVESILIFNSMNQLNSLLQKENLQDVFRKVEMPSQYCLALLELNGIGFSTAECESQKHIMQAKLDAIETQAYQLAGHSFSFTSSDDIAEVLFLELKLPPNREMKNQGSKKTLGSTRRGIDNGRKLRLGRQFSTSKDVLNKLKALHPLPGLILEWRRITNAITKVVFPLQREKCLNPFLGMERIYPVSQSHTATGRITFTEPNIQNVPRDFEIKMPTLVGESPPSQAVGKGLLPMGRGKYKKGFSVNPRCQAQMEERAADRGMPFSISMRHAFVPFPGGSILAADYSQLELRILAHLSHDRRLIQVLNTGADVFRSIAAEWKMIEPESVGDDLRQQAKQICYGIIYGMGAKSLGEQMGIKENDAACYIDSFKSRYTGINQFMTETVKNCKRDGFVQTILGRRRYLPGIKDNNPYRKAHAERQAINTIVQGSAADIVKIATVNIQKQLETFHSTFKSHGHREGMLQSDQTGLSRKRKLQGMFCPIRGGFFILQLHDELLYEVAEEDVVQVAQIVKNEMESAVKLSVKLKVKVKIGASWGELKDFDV
Assay: Polθ Polymerase Domain Kinact/KI Assay (PicoGreen)
Format: biochemical
Conditions: 0.8 nM Polθ, 100 nM DNA substrate, kobs vs [I] fit for 2-step covalent inhibitor
Procedure, shortened: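 Covalent inhibitors were tested against E. coli-expressed enzyme (0.8 nM final) with 100 nM annealed DNA substrate and […] in Tris pH 7.5 buffer, 1% DMSO. Reactions were EDTA-quenched over a 0–60 min time course and product DNA detected by PicoGreen fluorescence.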

Row | Kinact/Kl | SMILES
1 | 1.24e+06 M⁻¹ s⁻¹ | C=CC(=O)N1Cc2ccc(CN3C[C@H]4CC(=O)N(c5cc(C(F)(F)F)cc(C)n5)[C@@H]4C(=O)N(C)c4cccc(Cl)c43)nc2[C@@H]1CC#N (racemic) [Example 289b, 2-((S/R)-6-acryloyl-2-(((3aR,11aS)-6-chloro-10-methyl-1-(6-methyl-4-(trifluoromethyl)pyridin-2-yl)-2,11-dioxo-1,2,3,3a,4,10,11,11a-octahydro-5H-benzo[b]pyrrolo[2,3-f][1,4]diazocin-5-yl)methyl)-6,7-dihydro-5H-pyrrolo[3,4-b]pyridin-7-yl)acetonitrile]
2 | 1.48e+06 M⁻¹ s⁻¹ | C=CC(=O)N1Cc2ncc(CN3C[C@H]4CC(=O)N(c5cc(C(F)(F)F)cc(C)n5)[C@@H]4C(=O)N(C)c4cccc(Cl)c43)cc2[C@@H]1CC#N (racemic) [Example 291b, 2-((S/R)-6-acryloyl-3-(((3aR,11aS)-6-chloro-10-methyl-1-(6-methyl-4-(trifluoromethyl)pyridin-2-yl)-2,11-dioxo-1,2,3,3a,4,10,11,11a-octahydro-5H-benzo[b]pyrrolo[2,3-f][1,4]diazocin-5-yl)methyl)-6,7-dihydro-5H-pyrrolo[3,4-b]pyridin-5-yl)acetonitrile]
3 | 880000 M⁻¹ s⁻¹ | C=CC(=O)N1Cc2nc(CN3C[C@H]4CC(=O)N(c5cc(C(F)(F)F)cc(C)n5)[C@@H]4C(=O)N(C)c4cccc(Cl)c43)cn2C[C@H]1C(F)(F)F (racemic) [Example 293a, (3aR,11aS)-5-(((S/R)-7-acryloyl-6-(trifluoromethyl)-5,6,7,8-tetrahydroimidazo[1,2-a]pyrazin-2-yl)methyl)-6-chloro-10-methyl-1-(6-methyl-4-(trifluoromethyl)pyridin-2-yl)-1,3a,4,5,10,11a-hexahydro-2H-benzo[b]pyrrolo[2,3-f][1,4]diazocine-2,11(3H)-dione]
4 | 2.31e+06 M⁻¹ s⁻¹ | Cc1cc(C(F)(F)F)cc(N2C(=O)C[C@@H]3CN(Cc4ccc5c(c4)CN(C(=O)/C=C/CN(C)C)[C@H]5CC#N)c4c(Cl)cccc4N(C)C(=O)[C@H]32)n1 (racemic) [Example 310a, 2-((S/R)-5-(((3aR,11aS)-6-chloro-10-methyl-1-(6-methyl-4-(trifluoromethyl)pyridin-2-yl)-2,11-dioxo-1,2,3,3a,4,10,11,11a-octahydro-5H-benzo[b]pyrrolo[2,3-f][1,4]diazocin-5-yl)methyl)-2-((E)-4-(dimethylamino)but-2-enoyl)isoindolin-1-yl)acetonitrile]

The remaining lines, values behind:

Row | SMILES | Kinact/Kl
5 | C=CC(=O)N1Cc2nc(CN3C[C@H]4CC(=O)N(c5cc(C(F)(F)F)cc(C)n5)[C@@H]4C(=O)N(C)c4cccc(Cl)c43)ccc2[C@@H]1CC#N (racemic) [Example 290a] | 2.02e+06 M⁻¹ s⁻¹
6 | C=CC(=O)N1Cc2cc(CN3C[C@H]4CC(=O)N(c5cc(C(F)(F)F)cc(C)n5)[C@@H]4C(=O)N(C)c4cccc(Cl)c43)cnc2[C@@H]1CC#N (racemic) [Example 292a, 2-((S/R)-6-acryloyl-3-(((3aR,11aS)-6-chloro-10-methyl-1-(6-methyl-4-(trifluoromethyl)pyridin-2-yl)-2,11-dioxo-1,2,3,3a,4,10,11,11a-octahydro-5H-benzo[b]pyrrolo[2,3-f][1,4]diazocin-5-yl)methyl)-6,7-dihydro-5H-pyrrolo[3,4-b]pyridin-7-yl)acetonitrile] | 2.97e+06 M⁻¹ s⁻¹
7 | C=CC(=O)N1Cc2cc(CN3C[C@H]4CC(=O)N(c5cc(C(F)(F)F)cc(C)n5)[C@@H]4C(=O)N(C)c4cccc(Cl)c43)nn2C[C@@H]1C (racemic) [Example 294b, (3aR,11aS)-5-(((S/R)-5-acryloyl-6-methyl-4,5,6,7-tetrahydropyrazolo[1,5-a]pyrazin-2-yl)methyl)-6-chloro-10-methyl-1-(6-methyl-4-(trifluoromethyl)pyridin-2-yl)-1,3a,4,5,10,11a-hexahydro-2H-benzo[b]pyrrolo[2,3-f][1,4]diazocine-2,11(3H)-dione] | 2.48e+06 M⁻¹ s⁻¹
